Source: paper PMC5384962, “First-in-human studies of seletalisib, an orally bioavailable small-molecule PI3Kδ inhibitor for the treatment of immune and inflammatory diseases” (European Journal of Clinical Pharmacology, 2017)
Read-outs that look alike come from different tables or passages of the source.

Columns and labels:
[1] = Study-1 Part-A single ascending dose pharmacokinetics (plasma and urine); type: in vivo, human; settings: for Fe: fraction excreted in urine; for AUC / AUC(0-t) / Cmax / Vd/F / half-life / Tmax / CL renal: human, oral; for AUC / AUC(0-t) / Cmax / Vd/F / half-life / Tmax: plasma; for Vd/F: read-out: Vz/F; for CL renal: urine and plasma; for Ae(0–t): urine
Source text: (§1) These were phase I, randomised, double-blind, placebo-controlled studies designed to evaluate the safety, tolerability, PK and PD profiles of seletalisib following oral administration of single ascending doses and multiple ascending doses. Study-1 was a first-in-human, double-blind (sponsor-, investigator- and subject-blind) study that had two parts: Part-A evaluated seletalisib (single ascending doses) in healthy adults (including evaluation of food effects; Table 1); Part-B evaluated seletalisib (multiple ascending doses) in healthy adults and subjects with mild-to-moderate psoriasis. Study-2 was also a double-blind study of seletalisib (single and multiple ascending doses) in healthy subjects, which investigated higher doses.
(§2) Plasma concentrations of seletalisib were measured by high-performance liquid chromatography with tandem mass spectrometry (see Online Resource S1 for further details). The following PK parameters were determined in each study: AUC for seletalisib, maximum observed plasma concentration of seletalisib after a single dose (Cmax) and at steady-state (Cmaxss), time of occurrence of Cmax (tmax, obtained directly from the observed plasma concentration-time curves), minimum observed plasma concentration of seletalisib at steady-state immediately before the next dose would be administered (Ctrough), apparent terminal half-life, apparent volume of distribution after single dosing (Vz/F) and at steady-state (Vzss/F) and apparent total body clearance after single dosing (CL/F) and at steady-state (CLss/F). Accumulation factor based on AUC(0–24) [R(AUC)] and accumulation factor based on Cmax [R(Cmax)] were determined on multiple dose day 14. The following study-specific PK parameters were also determined: Study-1, total amount of seletalisib excreted in urine (Ae), renal clearance (CLr) and fraction of drug excreted in urine; Study-2, AUC(0–10) in BID dose groups, terminal elimination rate constant in plasma (λz), mean residence time (MRT) and linearity factor (LF [AUC(0–24)ss/AUC]).
(§3) Methods for the calculation of seletalisib PK parameters are detailed in Online Resource S1.
(§4) Seletalisib PK parameters were calculated via non-compartmental analysis methods from the individual concentration-time data using Phoenix WinNonlin version 6.2 (Certara, Princeton, NJ, USA). Urine (Study-1 only) and plasma PK parameters of seletalisib were reported for each subject and summarised by study part and dose group. Geometric mean and percentage geometric coefficient of variation (GeoCV%) were reported for all parameters except for tmax, which was reported using median and range. Dose proportionality for AUC and Cmax at Day_1 (Study-1 [Part-A & Part-B]; Study-2, single ascending dose-Day_1) and at steady state at Day_14 (Study-1 [Part-B]; Study-2, multiple ascending dose-Day_14) was examined via the power model and reported graphically. In Study-1, an assessment of food effect (fed versus fasted) was made for Cmax and AUC from the data for subjects who received the same dose in fed and fasted states in Part-A.

[2] = Study-1 Part-B multiple ascending dose pharmacokinetics (plasma and urine); type: in vivo, human; settings: for Fe(0–24) / CLss/F / Cmaxss / Ctrough / Vzss/F / AUC(0-t) / Tmax / Cmax / half-life / CL renal / Ae(0–24): Study-1 Part-B; for Fe(0–24) / CLss/F / Cmaxss / Ctrough / Vzss/F / AUC(0-t) / Cmax / half-life / CL renal / Ae(0–24): geo mean (GeoCV%); for AUC(0-t) / Tmax / Cmax / half-life / CL renal: human, oral; for AUC(0-t) / Tmax / Cmax / half-life: plasma; for AUC(0-t): read-out: AUC(0–24); for CL renal: urine and plasma; for Ae(0–24): urine
Source text: as §1, §2, §3, §4

[3] = Study-1 Part-A, single dose 1 mg fasted, geo mean (GeoCV%)
[4] = Study-1 Part-A, single dose 5 mg fasted, geo mean (GeoCV%)
[5] = Study-1 Part-A, single dose 5 mg fed, geo mean (GeoCV%)
[6] = Study-1 Part-A, single dose 10 mg fasted, geo mean (GeoCV%)
[7] = Study-1 Part-A, single dose 15 mg fasted, geo mean (GeoCV%)
[8] = 1 mg, Study-1 Part-A, single dose 1 mg fasted, geo mean (GeoCV%)
[9] = 5 mg, Study-1 Part-A, single dose 5 mg fasted, geo mean (GeoCV%)
[10] = 5 mg, Study-1 Part-A, single dose 5 mg fed, geo mean (GeoCV%)
[11] = 10 mg, Study-1 Part-A, single dose 10 mg fasted, geo mean (GeoCV%)
[12] = 15 mg, Study-1 Part-A, single dose 15 mg fasted, geo mean (GeoCV%)
[13] = power model, Study-1 Part B Day 14

[O-][n+]1cccc(-c2nc3c(Cl)cccc3cc2[C@@H](Nc2ncnc3cccnc23)C(F)(F)F)c1 [Seletalisib, seletalisib]
food effect ([1]; Study-1 Part-A, 5 mg fed (high-fat, high-calorie meal) vs fasted): No clinically significant food effect | geometric mean fraction of drug excreted in urine ([1]; Study-1 Part-A, parent drug, across dose groups): < 6% | CL/F [1, 3]: 1.93 (33.4) L/h | CL/F [1, 4]: 2.19 (34.3) L/h | CL/F [1, 5]: 1.87 (44.6) L/h | CL/F [1, 6]: 1.93 (17.3) L/h | CL/F [1, 7]: 1.93 (25.4) L/h | Fe [1, 3]: 5.79 (56.6) % | Fe [1, 4]: 5.37 (35.3) % | Fe [1, 5]: 4.81 (49.6) % | Fe [1, 6]: 4.76 (66.0) % | Fe [1, 7]: 4.59 (33.6) % | AUC [1, 8]: 518 ng·h/mL | AUC(0-t) [1, 8]: 473 ng·h/mL | Cmax [1, 8]: 26.7 ng/mL | Vd/F [1, 8]: 51.5 L | half-life ([1]; 1 mg, Study-1 Part-A, single dose 1 mg fasted, geo mean (GeoCV%), read-out: t1/2 (converted)): 18.5 h | Tmax ([1]; 1 mg, Study-1 Part-A, single dose 1 mg fasted, median (range), read-out: tmax): 1.77 h | AUC [1, 9]: 2290 ng·h/mL | AUC(0-t) [1, 9]: 2100 ng·h/mL | Cmax [1, 9]: 109 ng/mL | Vd/F [1, 9]: 59.2 L | half-life ([1]; 5 mg, Study-1 Part-A, single dose 5 mg fasted, geo mean (GeoCV%), read-out: t1/2 (converted)): 18.8 h | Tmax ([1]; 5 mg, Study-1 Part-A, single dose 5 mg fasted, median (range), read-out: tmax): 2.01 h | AUC [1, 10]: 2680 ng·h/mL | AUC(0-t) [1, 10]: 2480 ng·h/mL | Cmax [1, 10]: 105 ng/mL | Vd/F [1, 10]: 47.6 L | half-life ([1]; 5 mg, Study-1 Part-A, single dose 5 mg fed, geo mean (GeoCV%), read-out: t1/2 (converted)): 17.7 h | Tmax ([1]; 5 mg, Study-1 Part-A, single dose 5 mg fed, median (range), read-out: tmax): 4 h | AUC [1, 11]: 5170 ng·h/mL | AUC(0-t) [1, 11]: 4800 ng·h/mL | Cmax [1, 11]: 279 ng/mL | Vd/F [1, 11]: 54 L | half-life ([1]; 10 mg, Study-1 Part-A, single dose 10 mg fasted, geo mean (GeoCV%), read-out: t1/2 (converted)): 19.4 h | Tmax ([1]; 10 mg, Study-1 Part-A, single dose 10 mg fasted, median (range), read-out: tmax): 1.77 h | AUC [1, 12]: 7760 ng·h/mL | AUC(0-t) [1, 12]: 7000 ng·h/mL | Cmax [1, 12]: 313 ng/mL | Vd/F [1, 12]: 58.7 L | half-life ([1]; 15 mg, Study-1 Part-A, single dose 15 mg fasted, geo mean (GeoCV%), read-out: t1/2 (converted)): 21.1 h | Tmax ([1]; 15 mg, Study-1 Part-A, single dose 15 mg fasted, median (range), read-out: tmax): 3 h | half-life ([1]; Study-1, range across dose groups, read-out: geometric mean t1/2): 17.7 to 21.1 h | Tmax ([1]; Study-1 Part-A, single dose, range across fasted treatment groups, read-out: median tmax): 1.8 to 3 h | CL renal [1, 8]: 1.87 mL/min | CL renal [1, 9]: 1.95 mL/min | CL renal [1, 10]: 1.5 mL/min | CL renal [1, 11]: 1.53 mL/min | CL renal [1, 12]: 1.48 mL/min | Ae(0–t) [1, 3]: 0.058 (56.6) mg | Ae(0–t) [1, 4]: 0.269 (35.3) mg | Ae(0–t) [1, 5]: 0.241 (49.6) mg | Ae(0–t) [1, 6]: 0.476 (66.0) mg | Ae(0–t) [1, 7]: 0.689 (33.6) mg | geometric mean fraction of drug excreted in urine ([2]; Study-1 Part-A and Part-B, parent drug, across dose groups): ≤ 12% | Fe(0–24) ([2]; 5 mg, Day 1): 4.02 (32.2) % | CLss/F ([2]; 5 mg, Day 14): 1.97 (36.2) L/h | Cmaxss ([2]; 5 mg, Day 14): 175 (29.1) ng/mL | Ctrough ([2]; 5 mg, Day 14): 66.5 (47.3) ng/mL | Fe(0–24) ([2]; 5 mg, Day 14): 6.80 (40.0) % | Vzss/F ([2]; 5 mg, Day 14): 62.5 (20.0) L | Fe(0–24) ([2]; 8 mg, Day 1): 4.24 (51.9) % | CLss/F ([2]; 8 mg, Day 14): 1.83 (50.2) L/h | Cmaxss ([2]; 8 mg, Day 14): 285 (41.7) ng/mL | Ctrough ([2]; 8 mg, Day 14): 113 (67.8) ng/mL | Fe(0–24) ([2]; 8 mg, Day 14): 7.60 (26.3) % | Vzss/F ([2]; 8 mg, Day 14): 60.3 (40.1) L | Fe(0–24) ([2]; 15 mg, Day 1): 5.42 (48.2) % | CLss/F ([2]; 15 mg, Day 14): 2.75 (29.9) L/h | Cmaxss ([2]; 15 mg, Day 14): 414 (23.0) ng/mL | Ctrough ([2]; 15 mg, Day 14): 140 (35.0) ng/mL | Fe(0–24) ([2]; 15 mg, Day 14): 12.0 (52.8) % | Vzss/F ([2]; 15 mg, Day 14): 89.0 (24.9) L | AUC(0-t) ([2]; 5 mg, 5 mg, Day 1): 1560 ng·h/mL | Tmax ([2]; 5 mg, 5 mg, Day 1, median (range), read-out: tmax): 4.01 h | AUC(0-t) ([2]; 5 mg, 5 mg, Day 14): 2540 ng·h/mL | Tmax ([2]; 5 mg, 5 mg, Day 14, median (range), read-out: tmax): 3 h | AUC(0-t) ([2]; 8 mg, 8 mg, Day 1): 2610 ng·h/mL | Tmax ([2]; 8 mg, 8 mg, Day 1, median (range), read-out: tmax): 4 h | AUC(0-t) ([2]; 8 mg, 8 mg, Day 14): 4370 ng·h/mL | Tmax ([2]; 8 mg, 8 mg, Day 14, median (range), read-out: tmax): 3.5 h | AUC(0-t) ([2]; 15 mg, 15 mg, Day 1): 3940 ng·h/mL | Tmax ([2]; 15 mg, 15 mg, Day 1, median (range), read-out: tmax): 3.01 h | AUC(0-t) ([2]; 15 mg, 15 mg, Day 14): 5460 ng·h/mL | Tmax ([2]; 15 mg, 15 mg, Day 14, median (range), read-out: tmax): 3 h | Tmax ([2]; day 1, fed, range across groups, read-out: time to peak plasma concentration): 3.01 to 4.01 h | Tmax ([2]; day 14, fed, range across groups, read-out: time to peak plasma concentration): 3 to 3.5 h | Cmax ([2]; 5 mg, Day 1): 122 ng/mL | half-life ([2]; 5 mg, Day 14): 22 h | Cmax ([2]; 8 mg, Day 1): 201 ng/mL | half-life ([2]; 8 mg, Day 14): 22.8 h | Cmax ([2]; 15 mg, Day 1): 322 ng/mL | half-life ([2]; 15 mg, Day 14): 22.5 h | CL renal ([2]; 5 mg, 5 mg, Day 1): 2.15 mL/min | CL renal ([2]; 5 mg, 5 mg, Day 14): 2.23 mL/min | CL renal ([2]; 8 mg, 8 mg, Day 1): 2.17 mL/min | CL renal ([2]; 8 mg, 8 mg, Day 14): 2.32 mL/min | CL renal ([2]; 15 mg, 15 mg, Day 1): 3.43 mL/min | CL renal ([2]; 15 mg, 15 mg, Day 14): 5.48 mL/min | Dose proportionality of Cmaxss (ng/mL): Dose (beta), Estimate [2, 13]: 0.78 | Dose proportionality of Cmaxss (ng/mL): Intercept, Estimate [2, 13]: 3.95 | Ae(0–24) ([2]; 5 mg, Day 1): 0.201 (32.2) mg | Ae(0–24) ([2]; 5 mg, Day 14): 0.340 (40.0) mg | Ae(0–24) ([2]; 8 mg, Day 1): 0.340 (51.9) mg | Ae(0–24) ([2]; 8 mg, Day 14): 0.608 (26.3) mg | Ae(0–24) ([2]; 15 mg, Day 1): 0.812 (48.2) mg | Ae(0–24) ([2]; 15 mg, Day 14): 1.80 (52.8) mg
